Values after ≈ are worked out from the molar mass of the structure shown. Active and inactive are the calls of the source. The rule behind the calls is not given here.
Legend:
[1] = system: Escherichia coli; test: (§1) Bactericidal activity against Escherichia coli ATCC 25922 assessed as change in cell death associated gene expression by measuring down-regulation of UDP-glucose 4-epimerase (galE, D1792_RS06370) gene expression at 4 times of MIC concentration measured after 90 mins incubation by RNA sequencing (RNA-seq) study; format: functional, organism-based
[2] = system: Staphylococcus aureus; test: Bactericidal activity against methicillin-resistant Staphylococcus aureus NCTC 10442 assessed as change in cell death associated gene expression by measuring down-regulation of quorum sensing gene DX983_RS05700 gene expression at 4 times of MIC concentration measured after 90 mins incubation by RNA sequencing (RNA-seq) study; format: functional, organism-based
[3] = system: Acinetobacter baumannii; test: Antibacterial activity against Acinetobacter baumannii ATCC 17978 assessed as inhibition of bacterial growth incubated for 24 hrs by broth dilution method; format: functional
[4] = system: Escherichia coli; test: Antibacterial activity against Escherichia coli ATCC 25922 assessed as inhibition of bacterial growth incubated for 24 hrs by broth dilution method; format: functional
[5] = system: Staphylococcus aureus; test: In vivo antibacterial activity against Staphylococcus aureus ATCC 29213 infected C57BL6 mouse corneal infection model assessed as reduction in bacterial burden at 3 mg/ml, TOP 4 times in a day for 3 consecutive days; format: functional; conditions: time 3 day
[6] = system: Staphylococcus aureus; test: Antibacterial activity against methicillin-resistant Staphylococcus aureus NCTC 10442 assessed as inhibition of bacterial growth incubated for 24 hrs in presence of 20 uM Fe3+ by broth dilution method; format: functional
[7] = system: Staphylococcus aureus; test: Bactericidal activity against methicillin-resistant Staphylococcus aureus NCTC 10442 assessed as bacterial killing at 4 time of MIC concentration incubated for 2 hrs by time-kill assay; format: functional
[8] = system: Staphylococcus aureus; test: (§2) Bactericidal activity against methicillin-resistant Staphylococcus aureus NCTC 10442 assessed as down-regulation of biological processes related gene expression by measuring UMP biosynthetic process (GO:0044,205) at 4 times of MIC concentration measured after 90 mins incubation by RNA sequencing (RNA-seq) study; format: functional, organism-based
[9] = Cytotoxicity against mouse fibroblast NCTC clone 929 cells assessed as viable cells at 12.5 microg/ml incubated for 24 hrs by CCK-8 assay; format: toxicity, cell-based; conditions: NCTC clone 929 (L929) fibroblast cells, at 12.5 µg/mL, read-out: Activity
[10] = system: Staphylococcus aureus; test: Antibacterial activity against methicillin-resistant Staphylococcus aureus NCTC 10442 assessed as inhibition of bacterial growth incubated for 24 hrs in presence of 2.5 mM Ca2+ by broth dilution method; format: functional
[11] = Cytotoxicity against human HepG2 cells assessed as viable cells at […] microg/ml incubated for 24 hrs by CCK-8 assay; format: toxicity, cell-based; conditions: dose 1.56 µg/ml, read-out: Activity
[12] = system: Escherichia coli; test: Bactericidal activity against Escherichia coli ATCC 25922 assessed as bacterial reduction at 4 time of MIC concentration incubated for 2 hrs by time-kill assay; format: functional
[13] = system: Escherichia coli; test: as §1, with “outer membrane lipoprotein-coding gene (slp, D1792_ RS14130; porin, D1792_RS05555)” for “UDP-glucose 4-epimerase (galE, D1792_RS06370)”; format: functional, organism-based
[14] = system: Staphylococcus aureus; test: Bactericidal activity against methicillin-resistant Staphylococcus aureus NCTC 10442 assessed as bacterial reduction at 8 time of MIC concentration incubated for 0.5 hrs by time-kill assay; format: functional
[15] = Cytotoxicity against mouse fibroblast NCTC clone 929 cells assessed as viable cells at […] microg/ml incubated for 24 hrs by CCK-8 assay; format: toxicity, cell-based; conditions: NCTC clone 929 (L929) fibroblast cells, dose 1.56 µg/ml, read-out: Activity
[16] = system: Klebsiella pneumoniae; test: Antibacterial activity against Klebsiella pneumoniae ATCC 10031 assessed as inhibition of bacterial growth incubated for 24 hrs by broth dilution method; format: functional
[17] = system: Klebsiella pneumoniae; test: Antibacterial activity against Klebsiella pneumoniae ATCC 10031 assessed as inhibition of bacterial growth incubated for 24 hrs in presence of 140 mM Na+ by broth dilution method; format: functional
[18] = system: Staphylococcus aureus; test: as §2, with “pyrimidine ribonucleoside monophosphate metabolic (GO:0009173)” for “UMP biosynthetic process (GO:0044,205)”; format: functional, organism-based
[19] = system: Cell membrane; test: Induction of outer membrane permeabilization in Pseudomonas aeruginosa ATCC 9027 assessed as increase in fluorescence intensity at 1 to 8 times MIC concentration by NPN-dye based fluorescence analysis; format: cell membranes
[20] = system: Staphylococcus aureus; test: Antibacterial activity against methicillin-resistant Staphylococcus aureus N315 assessed as inhibition of bacterial growth incubated for 24 hrs by broth dilution method; format: functional
[21] = system: Staphylococcus aureus; test: Drug resistance, ratio of MIC for Staphylococcus aureus NCTC 10442 after 21 passages to MIC for Staphylococcus aureus NCTC 10442 during first exposure; format: functional
[22] = system: Staphylococcus aureus; test: Bactericidal activity against methicillin-resistant Staphylococcus aureus NCTC 10442 assessed as bacterial killing at 8 time of MIC concentration incubated for 0.5 hrs by time-kill assay; format: functional
[23] = system: Escherichia coli; test: Antibacterial activity against Escherichia coli ATCC 25922 assessed as inhibition of bacterial growth incubated for 24 hrs in presence of 140 mM Na+ by broth dilution method; format: functional
[24] = system: Staphylococcus aureus; test: Bactericidal activity against methicillin-resistant Staphylococcus aureus NCTC 10442 assessed as up regulation of alanine/aspartate and glutamate metabolism gene expression at 4 times of MIC concentration measured after 90 mins incubation by RNA sequencing (RNA-seq) study; format: functional, organism-based
[25] = system: Lipoteichoic acid; test: Displacement of BODIPY-TR-cadaverine from Bacillus subtilis lipoteichoic acid (LTA) assessed as increase in fluorescence intensity by fluorescence spectrophotometric analysis
[26] = system: Escherichia coli; test: Antibacterial activity against Escherichia coli ATCC 25922 assessed as inhibition of bacterial growth incubated for 24 hrs in presence of 20 uM Fe3+ by broth dilution method; format: functional
[27] = system: Escherichia coli; test: Bactericidal activity against Escherichia coli ATCC 25922 assessed as down-regulation of intracellular sequestering of iron ion (GO:0006880) at 4 times of MIC concentration measured after 90 mins incubation by RNA sequencing (RNA-seq) study; format: functional, organism-based
[28] = system: Klebsiella pneumoniae; test: Antibacterial activity against Klebsiella pneumoniae ATCC 10031 assessed as inhibition of bacterial growth incubated for 24 hrs in presence of 20 uM Fe2+ by broth dilution method; format: functional
[29] = system: Klebsiella pneumoniae; test: Antibacterial activity against Klebsiella pneumoniae ATCC 10031 assessed as inhibition of bacterial growth incubated for 24 hrs in presence of 2.5 mM Ca2+ by broth dilution method; format: functional
[30] = Cytotoxicity against human HepG2 cells assessed as viable cells at 6.25 microg/ml incubated for 24 hrs by CCK-8 assay; format: toxicity, cell-based; conditions: at 6.25 µg/mL, read-out: Activity
[31] = system: Staphylococcus aureus; test: Antibacterial activity against Staphylococcus aureus ATCC 29213 assessed as inhibition of bacterial growth incubated for 24 hrs in presence of 2.5 mM Ca2+ by broth dilution method; format: functional
[32] = Cytotoxicity against human HepG2 cells assessed as viable cells at 25 microg/ml incubated for 24 hrs by CCK-8 assay; format: toxicity, cell-based; conditions: at 25 µg/mL, read-out: Activity
[33] = system: Escherichia coli; test: Bactericidal activity against Escherichia coli ATCC 25922 assessed as change in metabolic stress associated gene expression by measuring down-regulation of gale (DX983_RS06370) gene expression at 4 times of MIC concentration measured after 90 mins incubation; format: functional, organism-based
[34] = Cytotoxicity against mouse fibroblast NCTC clone 929 cells assessed as viable cells at 6.25 microg/ml incubated for 24 hrs by CCK-8 assay; format: toxicity, cell-based; conditions: NCTC clone 929 (L929) fibroblast cells, at 6.25 µg/mL, read-out: Activity

C=C(C)[C@@H]1CCC(C)=C[C@H]1c1c(OCCCNC(=N)N)cc(CCCCC)cc1OCCCNC(=N)N
Activity [1]: Active
Activity [2]: Active
MIC [3]: 3.12 µg/mL (≈ 6.09 µM)
MIC [4]: 3.12 µg/mL (≈ 6.09 µM)
Activity [5]: 6.99 log10FFU/ml
MIC [6]: 0.39 µg/mL
inhibition (INH) [7]: 99.9%
Activity [8]: Active
viability at 24 h, 12.5 microg/ml [9]: 80.4%
MIC [10]: 0.39 µg/mL
viability at 24 h, 1.56 microg/ml [11]: 113%
Activity [12]: 5.52 log10FFU/ml
Activity [13]: Active
Activity [14]: 3 log10FFU/ml
viability at 24 h, 1.56 microg/ml [15]: 94%
MIC [16]: 1.56 µg/mL (≈ 3.04 µM)
MIC [17]: 3.12 µg/mL
Activity [18]: Active
Activity [19]: Dose-Dependent Effect
MIC [20]: 0.39 µg/mL (≈ 0.761 µM)
Ratio [21]: 4
inhibition (INH) [22]: 99.9%
MIC [23]: 3.12 µg/mL
Activity [24]: Active
Activity [25]: Dose-Dependent Effect
MIC [26]: 1.56 µg/mL
Activity [27]: Active
MIC [28]: 3.12 µg/mL
MIC [29]: 6.25 µg/mL
viability at 24 h, 6.25 microg/ml [30]: 91.3%
MIC [31]: 1.56 µg/mL
viability at 24 h, 25 microg/ml [32]: 92.9%
Activity [33]: Active
viability at 24 h, 6.25 microg/ml [34]: 86.2%
